Experimental data reported in patent US12269821B2, “Discovery of novel first in class nature-inspired compounds targeting the mitochondrial function and pharmaceutical composition thereof” (University of Sharjah, priority 2018, dated 2025).
“Also recorded” adds a separate entry of the source.

Columns and labels:
B220+ B lymphocytes = assay: Activation induced proliferation of lymphocytes (PMA/Ionomycin), Cytopainter flow cytometry, B cells; format: cell-based, C57BL/6J mice; details: stimulation with PMA/Ionomycin; for division index of B-cells: FIG. 2c; for expansion index of B-cells: FIG. 2d
Protocol: (§1) Spleen and lymph nodes were collected from C57BL/6J mice and stored in RPMI medium on ice until further processing. Further procedures were performed using a laminar flow hood. Single cell suspensions were created by shearing the organs between two microscopy slides. Cell suspensions were passed through a 70 μm cell strainer to exclude remaining tissue chunks. Cells were washed in PBS and centrifuged at 300 g for 5 min at 4° C. During the preparation of splenic single cell suspension, erythrocytes were removed by incubating the cells for 5 min at rt in RBC lysis buffer followed by extensive washing in PBS. Cells were resuspended in RPMI medium and cell count was determined. Lymphocytes were kept on ice until further use.
(§2) A total 17×10^6 cells were suspended in 15 mL Krebs Ringer buffer (with HEPES, 1 g L^−1 glucose, 1 mM pyruvate), supplemented with 30 μL of Cytopainter blue stock solution (500×) (#ab176726, Abcam) and incubated for 30 min at 37° C. to let the CFSE analog accumulate in the cells. The remaining Cytopainter reagent that was not incorporated into the cells was quenched by addition of 10 mL FCS and incubated for 5 min at rt. Another 25 mL of PBS were added and cells were centrifuged at 300 g for 5 min at rt. The cells were then suspended in 12.75 mL of complete RPMI culture medium. 2×10^5 cells in a volume of 150 μL were added to the wells of 96 well plates. The cytopainter-loaded cells were supplemented with the test substances, or DMSO as a negative control and oligomycin as a positive control.
(§3) Cytopainter loaded lymphocytes were stimulated with PMA (15 ng mL^−1) and Ionomycin (0.5 μg mL^−1). All cells were incubated for 60 h at 37° C., 5% CO2. Lymphocytes were then washed with 2% FBS in PBS, supplemented with anti-CD16/CD32 antibodies (to block unspecific Fc-receptor binding) and incubated for 10 min at 4° C. Subsequently cells were incubated for 20 min at 4° C. with anti-CD3 antibodies conjugated to FITC (clone: 145-2C11, #11-0031-82, eBioscience) and anti-B220 antibodies conjugated to PerCP-Cy5.5 (clone:RA3-6B2, #45-0452-82, eBioscience) to label T cells and B cells, respectively. Cells were subsequently washed with 2% FBS in PBS analyzed.
(§4) Cell proliferation was then analyzed by assessing the fluorescence intensity of cytopainter in the cells by flow cytometry. Reduced intensity of cytopainter dye indicates cells that have undergone cell division. Data was analyzed using FlowJo v10.4.2. Proliferation parameters were derived using the FlowJo Proliferation Tool. The Expansion index determines the fold-expansion of the overall culture. The Division index expresses the average number of cell divisions that a cell in the original population has undergone and also includes the cells that have never divided.

Hepa1-6 cell line [1] = assay: Cellular ATP content (CellTiter-Glo Assay); format: cell-based; details: Hepa1-6, exposure 24 h, FIG. 1a
Protocol: (§5) The tested compounds were dissolved in DMSO at a concentration of 100 mM and further diluted in PBS supplemented with 10% (v/v) DMSO. When necessary dissolution was enhanced by incubation at 50° C. and sonication at maximum output for 10 min. Hepa1.6 cell line (#CRL-1830, ATCC) was cultured in DMEM culture medium containing 1 g L^−1 glucose, 10% fetal bovine serum, 2 mM glutamine, 100 U mL^−1 Penicillin and 100 μg mL^−1 Streptomycin and 30 μM oleic acid. Cells were seeded at a density of 20000 cells per well in 96 well plates and incubated for several hours to allow the cells to attach at 37° C. with 5% CO2. Cells were then supplemented with the test substances at indicated concentrations (0.01-50 μM) and incubated for indicated time periods (24-48 h).
For all assays the tested substances were further diluted in 10% DMSO/PBS and added to the cells at the indicated concentrations with a final DMSO concentration of 0.01%. […]
Cells were treated for 24 h with the test substances at the indicated concentrations. The cellular ATP content was assessed using the CellTiter-Glo Assay (#G7571, Promega) as per the manufacturer's instructions. Luminescence was detected in a plate reader spectrophotometer. The results were normalized to the luminescence intensity measured in mock treated negative controls and the positive controls treated with 10 μM oligomycin.

Hepa1-6 cell line [2] = assay: Cytotoxicity (Pierce LDH Cytotoxicity Assay Kit); format: cell-based; details: Hepa1-6, FIG. 1e
Protocol: as §5
(§6) For all assays the tested substances were further diluted in 10% DMSO/PBS and added to the cells at the indicated concentrations with a final DMSO concentration of 0.01%. Negative vehicle controls were treated with 0.01% DMSO. Positive control was treated with 10 μM oligomycin or 10 μM FCCP (Carbonyl cyanide-4-(trifluoromethoxy) phenylhydrazone).
Cytotoxicity was assessed using the Pierce LDH Cytotoxicity Assay Kit (#88953, Thermo Fisher). […] Absorbance was measure at 490 nm and background at 680 nm. […] Cytotoxicity was expressed as the percentage of maximum signal intensity observed in freshly lysed cells.

Hepa1-6 cell line [3] = assay: Mitochondrial membrane potential (ΔΨm), TMRE fluorophore; format: cell-based; details: FIG. 1b; for reduce ΔΨm: Hepa1-6, exposure 24 h; for Emax at 1 µM: Mus musculus, Hepa1-6, concentration of 1 μM, read-out: decrease of normalized ΔΨm, maximum response
Protocol: as §5, §6
Mitochondrial membrane potential (ΔΨm) was assessed using the tetramethylrhodamine (TMRE) fluorophore. The cells were incubated with the test substances for 24 h and then loaded with TMRE at a final concentration of 200 nM for 45 min at 37° C. Positive control wells were treated with 10 μM FCCP 30 min before loading the cells with TMRE. The medium was removed and the cells were washed with PBS and supplemented with fresh culture medium. Fluorescence intensity of TRME was immediately measured (ex/em: 545/580 nm) using a plate reader spectrophotometer. The results were normalized to the fluorescence intensity measured in mock treated negative controls and the positive controls treated with 10 μM FCCP.

Hepa1-6 cell line [4] = assay: Cellular redox potential (AlamarBlue); format: cell-based; details: Hepa1-6, 24 h, FIG. 1c
Protocol: as §5, §6
Cells were treated for 24 h with the test substances or controls ([…] DMSO, 10 μM FCCP and 10 μM oligomycin). […] Fluorescence was measured at ex/em: 550/590 nm. […]

isolated T cells = assay: Activation induced proliferation of isolated T cells, Cytopainter flow cytometry; format: cell-based, C57BL/6J mice; details: 2f
Protocol: as §1
T cell was enriched from the splenocytes by negative selection using magnetic bead separation (Pan T cell isolation kit II, mouse, #130-095-130, Miltenyi) achieving more than 90% purity. The cells were kept in RPMI medium until further use.
as §2
Cytopainter loaded T cells were stimulated using two different approaches. Either T cells stimulated by plate bound anti-CD3 antibodies (coated at 1 μg/mL) and soluble anti-CD28 antibodies (at a final concentration of 0.2 μg mL^−1), or in separate replicates by addition of the cytokines IL-2 (50 ng mL^−1) and IL-7 (10 ng mL^−1) to stimulate T cells proliferation and survival.
as §4

CD3+ T lymphocytes = assay: Activation induced proliferation of lymphocytes (PMA/Ionomycin), Cytopainter flow cytometry, T cells; format: cell-based, C57BL/6J mice; details: stimulation with PMA/Ionomycin; for division index of T-cells: FIG. 2a; for expansion index of T-cells: FIG. 2b
Protocol: as §1, §2, §3, §4

Hepa1-6 cell line [5] = assay: BrdU incorporation/cell proliferation assay; format: cell-based; details: for suppression of cells proliferation: Hepa1-6, exposure 48 h, FIG. 1d
Protocol: as §5, §6
Cells were incubated for a total of 48 h with the tested substances. During the last 12 h the cells were supplemented with 200 μM BrdU (#ab126556, Abcam). After the incubation period cells were washed with PBS. Following that the cells fixed and permeabilized using the reagents of the kit and labeled for 1 h with anti-BrdU antibodies conjugated with peroxidase. After washing the fixed cells 5 times with PBS the wells were incubated with peroxidase substrate TMB. The reaction was stopped after 30 min. The signal intensity was measure at absorbance 450 nm. Results were normalized to controls samples treated with vehicle (0.01% DMSO, negative control) or 10 μM oligomycin.

[6] = stimulation with anti-CD3/CD28 antibodies, FIGS. 2e
[7] = stimulation with cytokines IL-2/IL-7, FIGS. 2e

| Compound | division index of B-cells (B220+ B lymphocytes) | expansion index of B-cells (B220+ B lymphocytes) | deplete ATP production (Hepa1-6 cell line [1]) | cytotoxic necrosis (Hepa1-6 cell line [2]) | reduce ΔΨm (Hepa1-6 cell line [3]) | Emax at 1 µM (Hepa1-6 cell line [3]) | effect on redox potential (Hepa1-6 cell line [4]) | activation-induced proliferation of isolated T-cells (isolated T cells; [6]) | activation-induced proliferation of isolated T-cells (isolated T cells; [7]) | division index of T-cells (CD3+ T lymphocytes) | expansion index of T-cells (CD3+ T lymphocytes) | suppression of cells proliferation (Hepa1-6 cell line [5]) | rank in diminishing the proliferation of Hepa1-6 (Hepa1-6 cell line [5]; Hepa1-6, 1d versus 1q) |
| --- | --- | --- | --- | --- | --- | --- | --- | --- | --- | --- | --- | --- | --- |
| C[C@]12CCC(=O)C[C@H]1N1CCc3c([nH]c4ccccc34)[C@@H]1CO2 [1q, (2aS,6aR,14bR)-2a-Methyl-3,4,6,6a,8,9,14,14b-octahydro-1H-benzo[5′,6′][1,4]oxazino[4′,3′:1,2]pyrido[3,4-k]indol-5(2aH)-one] | non-significant effects | non-significant effects | ≤ 50% | without noticeable cytotoxic necrosis | 77% | 90% | increase; also recorded: strongly affected | did not significantly affect | did not significantly affect | non-significant effects | non-significant effects | potent suppression |  |
| C[C@]12C=CC(=O)C[C@H]1N1CCc3c([nH]c4ccccc34)[C@@H]1CO2 [compound 1d, (2aS,6aR,14bR)-2a-Methyl-6,6a,8,9,14,14b-hexahydro-1H-benzo[5′,6′][1,4]oxazino[4′,3′:1,2]pyrido[3,4-b]indol-5(2 aH)-one] | non-significant effects | non-significant effects | up to 60% | without noticeable cytotoxic necrosis | 82% | 82% | increase; also recorded: strongly affected | did not significantly affect | did not significantly affect | non-significant effects | non-significant effects | potent suppression | most potent |
